From US20240018146A1, “COMPOSITIONS AND METHODS OF USING THE SAME FOR TREATMENT OF NEURODEGENERATIVE AND MITOCHONDRIAL DISEASE” (MITOKININ, INC., priority 2020, published 2024)
Where two headings read alike, the source gives them in different places.

What was measured:
Type in all cases: cell-based
HeLa MKYP cells [1] = test: Cell death measured by DAPI staining, with 1 μM FCCP/oligomycin or no toxin (no FO)
In short: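 Cell death was read by DAPI staining after 6–6.5 h compound exposure in HeLa MKYP cells, either with 1 μM FCCP/oligomycin or without toxin. H2O2 served as the cell-death control.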

HeLa MKYP cells [2] = test: Human mitophagy assay (HeLa mKeima assay, FACS); settings: read-out: Mitophagy induction EC50
In short: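 Mitophagy, read by FACS as the share of cells showing the lysosomal mtKeima emission shift, followed 6 h of 1 uM FCCP/oligomycin stimulation. Before that, HeLa MKYP cells spent 16 h with compound over a concentration range.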

[3] = Mitotoxicity / Mitotox safety margin (therapeutic window)

| SMILES | Highest safe dose (cytotoxicity; no FO; safe means DAPI+ <20%) (HeLa MKYP cells [1]) [µM] | Max % death with 1 μM FO (HeLa MKYP cells [1]) [%] | EC50 (HeLa MKYP cells [2]; Homo sapiens, HeLa) [nM] | Mito-Safety Index (highest safe dose/EC50) [3] | Highest safe dose (μM) (mitotox or cytotox) [3] [µM] | EC50 (HeLa MKYP cells [2]) [nM] |
| --- | --- | --- | --- | --- | --- | --- |
| C[C@@H]1CN([C@H]2CCc3ccccc3[C@@H]2Nc2ncnc3[nH]c(C4CC4)cc23)CCO1 (single isomer, unassigned) [EP-0040496] | 25.0 | 15.6 | 20 | 82.87 | 1.3 |  |
| C[C@@H]1CN([C@H]2CCc3ccccc3[C@@H]2Nc2ncnc3[nH]c(C4CC4)cc23)C[C@H](C)O1 (single isomer, unassigned) [EP-0040498] | 25.0 | 16.5 | 20 | 30.45 | 0.7 |  |
| Fc1cccc2c1CC[C@@H](N1C[C@H]3COC[C@H]3C1)[C@@H]2Nc1ncnc2[nH]c(C(F)(F)F)cc12 (single isomer, unassigned) [EP-0040506] | 25.0 | 41.0 | 50 | 44.10 | 2.2 |  |
| C[C@H]1CN([C@H]2CCc3ccccc3[C@@H]2Nc2ncnc3[nH]c(C4CC4)cc23)CCO1 (single isomer, unassigned) [EP-0040511] | 25.0 | 13.1 | 70 | 53.66 | 3.5 |  |
| Fc1cccc2c1CC[C@@H](N1C[C@H]3COC[C@H]3C1)[C@@H]2Nc1ncnc2[nH]c(C3CC3)cc12 (single isomer, unassigned) [EP-0040577] | 25.0 | 28.6 | 20 | 86.01 | 1.3 |  |
| FC(F)(F)c1cc2c(N[C@H]3c4ccccc4CC[C@@H]3C3CCOCC3)ncnc2[nH]1 (single isomer, unassigned) [EP-0040580] | 25.0 | 17.1 | 80 | 68.72 | 5.5 |  |
| c1ccc2c(c1)CC[C@H](C1CCOCC1)[C@H]2Nc1ncnc2[nH]c(C3CC3)cc12 (single isomer, unassigned) [EP-0040582] | 25.0 | 17.7 | 80 | 68.01 | 5.1 |  |
| Fc1ccc2c(c1)OC[C@H](N1C[C@@H]3COC[C@H]3C1)[C@H]2Nc1ncnc2[nH]c(C3CC3)cc12 (single isomer, unassigned) [EP-0040644] | 25.0 | 8.1 |  | 72.77 | 25.0 | 340 |
| FC(F)(F)c1cc2c(N[C@@H]3c4ccccc4OC[C@H]3C3CCOCC3)ncnc2[nH]1 (single isomer, unassigned) [EP-0040700] | 25.0 | 14.1 | 110 | 41.37 | 4.7 |  |
| Fc1ccc2c(c1)CC[C@@H](N1C[C@H]3COC[C@H]3C1)[C@@H]2Nc1ncnc2[nH]c(C(F)(F)F)cc12 (single isomer, unassigned) [EP-0040721] | 8.3 | 36.3 | 180 | 46.94 | 8.3 |  |
| Fc1ccc2c(c1)OC[C@H](N1C[C@H]3COC[C@@H]3C1)[C@H]2Nc1ncnc2[nH]c(C(F)(F)F)cc12 (single isomer, unassigned) [EP-0040748] | 25.0 | 25.3 |  | 46.81 | 9.9 | 210 |
